From US5527900A, “N3-alkyl-2',5'-0-silylated-3'-spiro-thymidine derivatives” (Stitching Rega VZW, priority 1991, dated 1996)
Values after ≈ are worked out from the molar mass of the structure shown. Where two headings read alike, the source gives them in different places.

Key:
HIV-1 (HTLV-IIIB) = experiment: Anti-retrovirus activity: inhibition of HIV-1-induced cytopathogenicity in MT-4 cells; assay type: cell-based; conditions: for EC50: Human immunodeficiency virus 1, IIIB, MT4, 120 h; for S.I. (Selectivity Index): CC50/EC50, MT-4 cells
From the text: The viruses used were moloney murine sarcoma virus (MSV), HIV-1 (strain HTLV-IIIB, kindly provided by R. C. Gallo and M. Popovic, National Cancer Institute, Bethesda, Md.), HIV-2 (strain LAV-2(ROD)), kindly provided by L. Montagnier (Pasteur Institute, Paris, France), simian immunodeficiency virus (SIV) (strain SIVMAC251, kindly provided by C. Bruck, RIT-Smith-Kline, Rixensart, Belgium).
(§1) In order to evaluate the inhibitory effects against retrovirus-induced cytopathogenicity in MT-4cells, said cells (5×10^5 cells/ml) were suspended in fresh culture medium and infected with HIV-1, HIV-2 or SIOV at 100 times the cell culture infective dose-50 (CCID50) per ml cell suspension (1 CCID50 being the dose infective for 50% of the cell cultures). Then, 100 μl of the infected cell suspension were transferred to microplate wells, mixed with 100 μl of the appropriate dilutions of the test compounds, and further incubated at 37° C. After 5 days, the number of viable cells was determined in a blood cell-counting chamber by trypan blue staining for both virus-infected and mock-infected cell cultures.

in vitro = conditions: human, mt-4 cells
Description: as §1

[1] = Partition coefficient (Pa) between 1-octanol and 10 mM potassium phosphate buffer; assay type: physicochemical; conditions: 1-octanol / 10 mM potassium phosphate buffer, pH 7.5, 50 μM; for logD at 50 µM: room temperature
Description: Partition of the test compounds between 1-octanol (Merck, Darmstadt, Germany) and 10 mM potassium phosphate buffer, pH, 7.5 (Merck), was measured as described in Balzarini et al., Biochem, Biophys. Res. Commun. 158: 413-422 (1989). Briefly, a 50 μM concentration of the test compound in potassium phosphate buffer was thoroughly mixed with an equal volume of 1-octanol for 30 min at room temperature. Then, the mixture was further equilibrated at room temperature and UV absorption was measured for the aqueous and alcoholic liquid phases. The partition coefficient (Pa) was calculated as the ratio of the compound concentration present in the 1-octanol phase to the compound concentration present in the aqueous phase.

MT-4 cells = experiment: Cytotoxicity for mock-infected MT-4 cells; conditions: for cytotoxicity to MT-4 cells (in words): at 100 μg/ml
Description: as §1

MT-4 cell DNA synthesis = experiment: Incorporation of radiolabeled precursors into MT-4 cell DNA; assay type: cell-based; conditions: Homo sapiens, MT4, MT-4 cells, 20 to 24 hr
From the text: (§2) The radiolabeled nucleosides [methyl-^3 H]dThd (specific radioactivity: 40 Ci/mmol), [5-^3 H]dUrd (specific radioactivity: 27 Ci/mmol), [5-^3 H]dCyc (specific radioactivity: 18.2 Ci/mmol) and the radiolabeled amino acid L-[4,5-^3 H]leucine (specific radioactivity: 52 Ci/mmol were derived from the Radiochemcial Centre (Amersham, England); [5-^3 H]Urd (specific radioactivity: 21 Ci/mmol) and [5-^3 H]Cyd (specific radioactivity: 21 Ci/mmol) and were obtained from Moravek Biochemicals Inc. (Brea, Calif.)
(§3) The incorporation of [methyl-^3 H]dThd, [5-^3 H]dUrd, [5-^3 H]dCyd, [5-^3 H]Urd, [5-^3 H]Cyd and L-[4,5-^3 H]1eu into TCA-insoluble MT-4 cell material was measured in wells of a 96-well microtiter plate (Falcon-3072, Becton-Dickinson, New Jersey). To each well were added 10^5 MT-4 cells, 0.25 μCi of the radiolabeled precursor and a given amount of test compound. The cells were allowed to proliferate for 20 to 24 hr at 37° C. in a humidified, CO2 -controlled atmosphere. At the end of this incubation period, the contents of the wells (200 μl) were brought onto 25-mm glass fiber filters (type A/E, Gelman Instrument Company, Ann Arbor, Mich.), and mounted on a Millipore 3025 sampling manifold apparatus. The filters were washed twice with 2 ml and 5 ml cold NaCl/Pi (phosphte-buffered saline), twice with 2 and 5 ml cold 10% trichloroacetic acid (TCA), twice with 5 and 7.5 ml cold 5% TCA, and twice with 1 ml cold ethanol.

MT-4 cell RNA synthesis = experiment: Incorporation of radiolabeled precursors into MT-4 cell RNA; assay type: cell-based; conditions: Homo sapiens, MT4, MT-4 cells, 20 to 24 hr
From the text: as §2, §3

[2] = tested on: MT-4 cell protein synthesis; experiment: Incorporation of radiolabeled leucine into MT-4 cell protein; assay type: cell-based; conditions: Homo sapiens, MT4; MT-4 cells, 20 to 24 hr; read-out: IC50, L-[4,5-3H]leucine incorporation
From the text: as §2, §3

[3] = tested on: MT-4 cell DNA, RNA or protein synthesis; experiment: Incorporation of radiolabeled DNA, RNA or protein precursors into TCA-insoluble MT-4 cell material (summary in words); assay type: cell-based; conditions: for inhibition of incorporation of dThd, dUrd, dCyd, Urd, Cyd or leucine: at 100 μg/ml
From the text: as §2, §3

HIV-2 strain (EHO) = experiment: Activity against HIV-2 strain EHO; assay type: cell-based
HIV-1 = experiment: Antiviral activity upon delayed addition to HIV-1-infected MT-4 cells; assay type: cell-based
Description: as §1
Mt-4 cells were suspended in culture medium, infected with HIV-1 and brought into microplate wells as described above. […] After 5 days, the number of viable cells was determined and the EC50 and CC50 values for the test compounds were defined as described in example 1.

[4] = read-out: IC50, [5-3H]dCyd incorporation
[5] = read-out: IC50, [5-3H]dUrd incorporation
[6] = read-out: IC50, [methyl-3H]dThd incorporation
[7] = read-out: IC50, [5-3H]Cyd incorporation
[8] = read-out: IC50, [5-3H]Urd incorporation

| Compound | CC50 at 120 h (in vitro) | logD at 50 µM [1] | EC50 (HIV-1 (HTLV-IIIB)) | S.I. (Selectivity Index) (HIV-1 (HTLV-IIIB); Table 1) | presence in the n-octanol phase compared to the aqueous phase [1] | also measured |
| --- | --- | --- | --- | --- | --- | --- |
| Cc1cn([C@@H]2O[C@H](CO)[C@@]3(OS(=O)(=O)C=C3N)[C@H]2O)c(=O)[nH]c1=O [Compound 1] | > 100 µg/mL | -0.932 |  |  |  | EC50 (HIV-1 (HTLV-IIIB); Table 1, HIV-1 in MT-4 cells, 5 days, read-out: EC50): > 100 µg/mL |
| Cc1cn([C@@H]2O[C@H](CO)[C@@]3(OS(=O)(=O)C=C3N)[C@H]2O[Si](C)(C)C(C)(C)C)c(=O)[nH]c1=O [Compound 2] | 106 µg/mL (≈ 223 µM) | > 1.3 | > 40 µg/mL | < 2,5 | more than 95% |  |
| Cc1cn([C@@H]2O[C@H](CO[Si](C)(C)C(C)(C)C)[C@@]3(OS(=O)(=O)C=C3N)[C@H]2O)c(=O)[nH]c1=O [Compound 3] | 45 µg/mL (≈ 94.6 µM) | > 1.3 | > 20 µg/mL | < 2 | more than 95% |  |
| Cc1cn([C@@H]2O[C@H](COC(=O)c3ccccc3)[C@@]3(OS(=O)(=O)C=C3N)[C@H]2O[Si](C)(C)C(C)(C)C)c(=O)[nH]c1=O [Compound 4] | 20 µg/mL (≈ 34.5 µM) | > 1.3 | > 8 µg/mL | < 2,5 | more than 95% |  |
| C=CCn1c(=O)c(C)cn([C@@H]2O[C@H](CO[Si](C)(C)C(C)(C)C)[C@@]3(OS(=O)(=O)C=C3N)[C@H]2O[Si](C)(C)C(C)(C)C)c1=O [Compound 8, {1-[2', 5'-Bis-O-(tert-butyldimethylsilyl)-β-D-ribofuranosyl]-3-N-allyl-thymine}-3'-spiro-5"{4"-amino-1", 2"-oxathiole-2", 2"-dioxide}] | > 200 µg/mL | > 1.3 | 0.141 µg/mL (≈ 0.224 µM) | > 1418 | more than 95% | cytotoxicity to MT-4 cells (in words) (MT-4 cells): not cytotoxic; IC50 (MT-4 cell DNA synthesis; [4]): > 100 µg/mL; IC50 (MT-4 cell DNA synthesis; [5]): > 100 µg/mL; IC50 (MT-4 cell DNA synthesis; [6]): > 100 µg/mL; IC50 (MT-4 cell RNA synthesis; [7]): > 100 µg/mL; IC50 (MT-4 cell RNA synthesis; [8]): > 100 µg/mL; IC50 [2]: > 100 µg/mL; inhibition of incorporation of dThd, dUrd, dCyd, Urd, Cyd or leucine [3]: did not markedly inhibit |
| CC(C)=CCn1c(=O)c(C)cn([C@@H]2O[C@H](CO[Si](C)(C)C(C)(C)C)[C@@]3(OS(=O)(=O)C=C3N)[C@H]2O[Si](C)(C)C(C)(C)C)c1=O [Compound 9, {1-[2', 5'-Bis-O-(tert-butyldimethylsilyl)-β-D-ribofuranosyl]-3-N-(3-methyl-2-butenyl)-thymine}-3'spiro-5"-{4"-amino-1", 2"-oxathiole-2", 2"-dioxide}] | 73 µg/mL (≈ 111 µM) |  | 0.239 µg/mL (≈ 0.363 µM) | 252 |  | cytotoxicity to MT-4 cells (in words) (MT-4 cells): not cytotoxic; activity against HIV-2 strain (EHO) (HIV-2 strain (EHO)): inactive; IC50 (MT-4 cell DNA synthesis; [4]): > 100 µg/mL; IC50 (MT-4 cell DNA synthesis; [5]): > 100 µg/mL; IC50 (MT-4 cell DNA synthesis; [6]): > 100 µg/mL; IC50 (MT-4 cell RNA synthesis; [7]): > 100 µg/mL; IC50 (MT-4 cell RNA synthesis; [8]): > 100 µg/mL; IC50 [2]: > 100 µg/mL; inhibition of incorporation of dThd, dUrd, dCyd, Urd, Cyd or leucine [3]: did not markedly inhibit |
| CCc1cn([C@@H]2O[C@H](CO[Si](C)(C)C(C)(C)C)[C@@]3(OS(=O)(=O)C=C3N)[C@H]2O[Si](C)(C)C(C)(C)C)c(=O)[nH]c1=O [Compound 10, {1-[2', 5'-Bis-O-(tert-butyldimethylsilyl)-β-D-ribofuranosyl]-5-ethyl-uracil}-3'-spiro-5"-{4"-amino-1",2"-oxathiole-2",2"-dioxide}] | 3.2 µg/mL (≈ 5.3 µM) |  | 0.038 µg/mL (≈ 0.0629 µM) | 82 |  | decrease of antiviral activity on delayed addition (HIV-1; addition delayed by 17-24 hours, data not shown): 10 fold; antiviral activity on delayed addition (HIV-1; addition delayed by 41 to 48 hours): almost totally lost |
| CC(C)(C)[Si](C)(C)OC[C@H]1O[C@@H](n2ccc(=O)[nH]c2=O)[C@H](O[Si](C)(C)C(C)(C)C)[C@]12OS(=O)(=O)C=C2N [Compound 11, {1-[2', 5'-Bis-O-(tert-butyldimethylsilyl)-β-D-ribofuranosyl]uracil}-3'-spiro-5"-{4"-amino-1", 2"-oxathiole-2", 2"-dioxide}] | 8.3 µg/mL (≈ 14.4 µM) | > 1.3 | 0.114 µg/mL (≈ 0.198 µM) | 73 | more than 95% | inhibition of MT-4 cell proliferation (in words) (MT-4 cells): inhibitory to MT-4 cell proliferation; cytotoxicity to MT-4 cells (in words) (MT-4 cells): not cytotoxic; IC50 (MT-4 cell DNA synthesis; [4]): 18 µg/mL (≈ 31.3 µM); IC50 (MT-4 cell DNA synthesis; [5]): 12 µg/mL (≈ 20.8 µM); IC50 (MT-4 cell DNA synthesis; [6]): 38 µg/mL (≈ 66 µM); IC50 (MT-4 cell RNA synthesis; [7]): 11 µg/mL (≈ 19.1 µM); IC50 (MT-4 cell RNA synthesis; [8]): 11 µg/mL (≈ 19.1 µM); IC50 [2]: 14 µg/mL (≈ 24.3 µM); inhibition of incorporation of precursors relative to inhibition of MT-4 cell proliferation ([3]; Table 2 discussion): equally inhibitory; preferential inhibition of incorporation of one precursor over the others ([3]; Table 2 discussion): neither; inhibition of incorporation of dThd, dUrd, dCyd, Urd, Cyd or leucine [3]: did not markedly inhibit |
| CC(C)(C)[Si](C)(C)OC[C@H]1O[C@@H](n2cc(Br)c(=O)[nH]c2=O)[C@H](O[Si](C)(C)C(C)(C)C)[C@]12OS(=O)(=O)C=C2N [Compound 12] | 2.35 µg/mL (≈ 3.59 µM) |  | 0.206 µg/mL (≈ 0.315 µM) | 11 |  | activity against HIV-2 strain (EHO) (HIV-2 strain (EHO)): inactive |
| C=CCn1c(=O)ccn([C@@H]2O[C@H](CO[Si](C)(C)C(C)(C)C)[C@@]3(OS(=O)(=O)C=C3N)[C@H]2O[Si](C)(C)C(C)(C)C)c1=O [Compound 13, {1-[2', 5'-Bis-O-(tert-butyldimethylsilyl)-62 -D-ribofuranosyl]-3-N-allyl-uracil}-3'-spiro-5"-{4"-amino-1", 2"-oxathiole-2", 2"-dioxide}] | 5.31 µg/mL (≈ 8.62 µM) |  | 0.364 µg/mL (≈ 0.591 µM) | 15 |  |  |
| CC(=O)Nc1ccn([C@@H]2O[C@H](CO[Si](C)(C)C(C)(C)C)[C@@]3(OS(=O)(=O)C=C3N)[C@H]2O[Si](C)(C)C(C)(C)C)c(=O)n1 [Compound 15, {4-N-Acetyl-1-[2', 5'-bis-O-(tert-butyldimethylsilyl)-β-D-ribofuranosyl]cytosine}-3'-spiro-5"-{4"-amino-1",2"-oxathiole-2",2"-dioxide}] | 7.5 µg/mL (≈ 12.2 µM) | > 1.3 | 0.097 µg/mL (≈ 0.157 µM) | 77 | more than 95% |  |
| CC(C)(C)[Si](C)(C)OC[C@H]1O[C@@H](n2cnc3c(N)ncnc32)[C@H](O[Si](C)(C)C(C)(C)C)[C@]12OS(=O)(=O)C=C2N [Compound 17] | 7.3 µg/mL (≈ 12.2 µM) |  | 0.162 µg/mL (≈ 0.271 µM) | 45 |  | activity against HIV-2 strain (EHO) (HIV-2 strain (EHO)): inactive |
